Data set [1] deals with ulcer caused by indomethacin (mucosal lesions in the glandular part of the stomach). The data set is described as follows: Effect on ulcer caused by indomethacin. Format: in vivo, male SD rats. The note with it: Rattus norvegicus, ip, read-out: % Inhibition of lesion formation.
Experimental: Indomethacin is subcutaneously administered to male SD rats (body weight: 200-220 g) fasted for 24 hours at a dose of 30 mg/kg. The stomachs are excised 7 hours after the administration. The total length of mucosal lesions occurred in the glandular part of the stomach is measured and % inhibition of lesion formation is calculated in comparison with those in the control group. Fifteen minutes before the administration of indomethacin, the test compounds are intraperitoneally administered in a form of aqueous solution.
A short description of the next data set: Acute Toxicities. The following applies: mouse, in vivo, ip; intraperitoneal, aqueous solution; male ddY mice.
Where [2] appears, read: 0.3 mg/Kg, intraperitoneal, 15 min before indomethacin 30 mg/kg s.c., male SD rats, 7 hours.
The mark [3] stands for this setting: 1.0 mg/Kg, intraperitoneal, 15 min before indomethacin 30 mg/kg s.c., male SD rats, 7 hours.
The mark [4] stands for this setting: 3.0 mg/Kg, intraperitoneal, 15 min before indomethacin 30 mg/kg s.c., male SD rats, 7 hours.

Like-named read-outs stand apart in the source and are kept apart here.

For ten compounds, inhibition in vivo and LD50 results are on record in patent US4731459A, “Novel anti-ulcer agents and quassinoids” (Shionogi & Co., Ltd., priority 1985, dated 1988).

Text for Acute Toxicities: Male ddY mice (Body weight 25-28 g each) are employed for the acute toxicity test. The test compounds are intraperitoneally administered in a form of aqueous solution.

`C=C1[C@@H](O)[C@]2(O)OC[C@]34[C@H]2[C@@]2(C)[C@H](O)C(=O)CC(C)[C@@H]2C[C@H]3OC(=O)[C@H](O)[C@@]14O` (single isomer, unassigned) [IIh, 3,4-Dihydroeurycomanone]: in data set [1] (7 h), the inhibition in vivo at 3 mg/kg is -10%.

As usually defined, the LD50 is the dose expected to kill half of the subjects tested. Read a high LD50 as a less toxic substance. Take `CC1=CC(=O)[C@@H](O)[C@]2(C)[C@H]3[C@@]4(O)OC[C@@]35[C@@H](C[C@@H]12)OC(=O)C[C@H]5[C@]1(CO1)[C@H]4O` [IIa, 13α,18-Epoxy-13,18-dihydroailanthone]: in data set [1] (setting [2]), the inhibition in vivo at 0.3 mg/kg worked out at 36.8%. Further, the inhibition in vivo at 1 mg/kg in data set [1] (setting [3]) turned out to be 77.1%. Moreover, in data set [1] (setting [4]), the inhibition in vivo at 3 mg/kg was 100%. The same compound came in with a median lethal dose (LD50) in “Acute Toxicities” above 100 mg/kg.

`CC1=CC(=O)[C@@H](O)[C@]2(C)[C@H]3[C@@]4(O)OC[C@@]35[C@@H](C[C@@H]12)OC(=O)C[C@H]5[C@@]1(CO1)[C@H]4O` [IIb, 13β,18-Epoxy-1,3,18-dihydroailanthone]: in data set [1] (setting [4]), the inhibition in vivo at 3 mg/kg turned out to be 74.4%. Besides, the 50% lethal dose (LD50) in the data set “Acute Toxicities” was above 30 mg/kg.

For the compound `CC1CC(=O)[C@@H](O)[C@]2(C)[C@H]3[C@@]4(O)OC[C@@]35[C@@H](C[C@@H]12)OC(=O)C[C@H]5C(C)[C@H]4O` (stereo partly shown) [IIc, 3,4,13,18-Tetrahydroailanthone], in data set [1] (setting [4]), the inhibition in vivo at 3 mg/kg is 13.7%. This compound returned an LD50 in “Acute Toxicities” above 30 mg/kg.

For `CC1=CC(=O)[C@@H](O)[C@]2(C)[C@H]3[C@@]4(O)OC[C@@]35[C@@H](C[C@@H]12)OC(=O)C[C@H]5C(C)[C@H]4O` (stereo partly shown) [IId, 13,18-dihydroailanthone], in data set [1] (7 h), the inhibition in vivo at 3 mg/kg was found to be 67.8%. Also, the LD50 in “Acute Toxicities” is above 30 mg/kg.

In the case of `CC1=CC(=O)[C@@H](O)[C@]2(C)[C@H]3[C@@]4(O)OC[C@@]35[C@@H](C[C@@H]12)OC(=O)[C@H](O)[C@@]5(O)[C@]1(CO1)[C@H]4O` [IIe, 13α,18-Epoxy-13,18-dihydroeurycomanone], the inhibition in vivo at 3 mg/kg in data set [1] (7 h) was determined as 4.9%.

Regarding `CC1=CC(=O)[C@@H](O)[C@]2(C)[C@H]3[C@@]4(O)OC[C@@]35[C@@H](C[C@@H]12)OC(=O)[C@H](O)[C@@]5(O)[C@@]1(CO1)[C@H]4O` [IIf, 13β,18-Epoxy-13,18-dihydroeurycomanone], in data set [1] (7 h), the inhibition in vivo at 0.1 mg/kg was found to be 26.4%, the inhibition in vivo at 0.3 mg/kg was 71.3% and the inhibition in vivo at 1 mg/kg turned out to be 92.6%. Moreover, the LD50 in “Acute Toxicities” is 5.5 mg/kg.

As for `CC1=CC(=O)[C@@H](O)[C@]2(C)[C@H]3[C@@]4(O)OC[C@@]35[C@@H](C[C@@H]12)OC(=O)[C@H](O)[C@@]5(O)[C@@H](C)[C@H]4O` [IIg-A, 13β,18-Dihydro compound], in data set [1] (7 h), the inhibition in vivo at 3 mg/kg is 47.1%.

With `CC1=CC(=O)[C@@H](O)[C@]2(C)[C@H]3[C@@]4(O)OC[C@@]35[C@@H](C[C@@H]12)OC(=O)[C@H](O)[C@@]5(O)[C@H](C)[C@H]4O` [IIg-B, 13α,18-Dihydro compound], the inhibition in vivo at 3 mg/kg in data set [1] (7 h) was -3.1%.

As to `C=C1[C@@H](O)[C@]2(O)OC[C@]34[C@H]2[C@@]2(C)[C@H](O)C(=O)C=C(C)[C@@H]2C[C@H]3OC(=O)[C@H](O)[C@@]14O` [Ib, eurycomanone], in data set [1] (0.1 mg/Kg, intraperitoneal, 15 min before indomethacin 30 mg/kg s.c., male SD rats, 7 hours), the inhibition in vivo at 0.1 mg/kg stood at 12.5%. For the same compound, the inhibition in vivo at 0.3 mg/kg in data set [1] (setting [2]) was determined as 58.5%. In data set [1] (setting [3]), the inhibition in vivo at 1 mg/kg came to 94.7%. Besides, the LD50 in “Acute Toxicities” turned out to be 18.9 mg/kg.
